{"source": "patent US4444782A", "about": "“2(4-tert.-Butyl-2,6-dichlorophenyl-imino)imidazolidine and use as an anti-hypertension agent” (SmithKline Beckman Corporation, priority 1982, dated 1984)", "key": {"[1]": {"conditions": "cited literature; cited from earlier work"}, "[2]": {"target": "T1, alpha3 (vascular postjunctional alpha2) receptor, dog saphenous vein (Canis lupus familiaris, UniProt A0A8I3Q7S8)", "T1 construct": "the saphenous vein is located and cleaned of connective tissue; from tissue; host or cells: saphenous vein rings of mongrel dogs", "T1 sequence (A0A8I3Q7S8 1-427)": "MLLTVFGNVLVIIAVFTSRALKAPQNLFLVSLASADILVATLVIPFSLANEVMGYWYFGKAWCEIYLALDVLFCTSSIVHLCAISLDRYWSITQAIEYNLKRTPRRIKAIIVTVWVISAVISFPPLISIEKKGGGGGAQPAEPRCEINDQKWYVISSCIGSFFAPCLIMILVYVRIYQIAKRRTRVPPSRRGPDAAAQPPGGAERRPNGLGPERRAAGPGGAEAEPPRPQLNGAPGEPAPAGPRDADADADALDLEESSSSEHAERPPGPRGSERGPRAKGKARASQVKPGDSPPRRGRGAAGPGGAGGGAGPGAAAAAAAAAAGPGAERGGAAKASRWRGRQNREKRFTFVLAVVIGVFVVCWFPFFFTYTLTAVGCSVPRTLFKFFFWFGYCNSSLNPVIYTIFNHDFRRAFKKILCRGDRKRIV", "conditions": "for relative potency, alpha3: dog saphenous vein, clonidine versus the compound of this invention", "procedure": "(§1) Another test system to assay for vascular postjunctional alpha2 stimulation utilizes the dog saphenous vein. This activity may be called alpha3 stimulation. The protocol for this test is as follows:\n(§2) Mongrel dogs of either sex are anesthetized with sodium pentobarbital (50 mg/kg, i.p.). After the dog is anesthetized, the saphenous vein is located and cleaned of connective tissue, a 2-4 cm. segment is tied at both ends and removed. The venous segment is placed in a dish of cold Krebs solution and additional cleaning is performed to remove as much non-vascular tissue as possible. Ring segments (3-4 mm.) are then cut from the vessel.\n(§3) The vessel is mounted in a superfusion chamber as known to the art for the rabbit ear artery except that the insert holding the venous ring has two parallel 0.5 mm tungsten wires separated by 2 mm. The tissue is slipped over these parallel wires and the insert attached to the main block. A third tungsten wire is then inserted through the ring and attached to a force-displacement transducer.\n(§4) An initial tension of 4 gm is placed on the tissue, with tension being adjusted until a stable resting tension of 2 gm. is produced. Concentration-effect curves are determined as described in the publication referred to above for the ear artery segment."}, "[3]": {"test_system": "alpha3 (vascular postjunctional alpha2) receptor, dog saphenous vein", "conditions": "for α2/α3 Selectivity: ratio of ED50 guinea pig atrium to ED50 dog saphenous vein", "procedure": "as §1, §2, §3, §4"}, "[4]": {"target": "alpha1 receptor (rabbit ear artery)", "test": "isolated perfused rabbit ear artery (postjunctional alpha1 agonism)", "conditions": "for pEC50: isolated perfused rabbit ear artery, read-out: ED50 Alpha1 Rabbit Ear Artery", "text": "Since the early work on clonidine, at least two types of vascular alpha receptor sites have been identified. A postjunctional, or postsynaptic, alpha1 receptor was initially reported. […] In the alpha test protocol in the isolated perfused rabbit ear artery described by J. P. Hieble et al., Arch."}, "[5]": {"target": "T2, alpha2 receptor (guinea pig atrium) (Cavia porcellus, UniProt Q60474)", "T2 construct": "isolated, superfused guinea pig left atrium; from tissue; host or cells: guinea pig left atrium (sympathetic nerve endings)", "T2 sequence (Q60474 1-464)": "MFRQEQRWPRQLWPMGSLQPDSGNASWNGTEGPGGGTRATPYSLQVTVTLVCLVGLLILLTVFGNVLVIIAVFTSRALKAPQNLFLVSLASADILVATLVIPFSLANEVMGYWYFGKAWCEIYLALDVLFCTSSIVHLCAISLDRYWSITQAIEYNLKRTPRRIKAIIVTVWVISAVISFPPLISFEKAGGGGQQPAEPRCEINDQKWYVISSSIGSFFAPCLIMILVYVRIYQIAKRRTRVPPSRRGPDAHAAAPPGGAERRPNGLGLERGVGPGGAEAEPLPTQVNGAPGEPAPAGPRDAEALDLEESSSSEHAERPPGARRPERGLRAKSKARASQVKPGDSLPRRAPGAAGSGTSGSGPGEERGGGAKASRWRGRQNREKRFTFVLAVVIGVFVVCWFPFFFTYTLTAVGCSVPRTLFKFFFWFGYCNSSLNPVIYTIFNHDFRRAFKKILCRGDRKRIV", "test": "isolated, superfused guinea pig left atrium (prejunctional alpha2 agonism)", "text": "The second type of vascular alpha receptor site to be reported is located prejunctionally on sympathetic neurons and called alpha2 sites. The protocol employed for determining this activity is the isolated, superfused guinea pig left atrium described in the cited Hieble publication."}, "normotensive rat": {"test_system": "normotensive rat", "test": "reduction of blood pressure in the normotensive rat model", "format": "in vivo", "conditions": "for ED30: iv, read-out: EC30 for the reduction of blood pressure (hypotensive effect)", "procedure": "In the normotensive rat model, the I.V. EC30 for the reduction of blood pressure was 9.8 μg/kg."}, "[6]": {"test": "potentiation of hexabarbitol induced sleep time (sedation)", "format": "in vivo"}}, "note": "pEC50: −log10 of the molar value. Structures can show the parent of a compound that is named as a salt. Where two headings read alike, the source gives them in different places."}
{"compound": "CCc1ccc(N=C2NCCN2)c(Cl)c1", "note": "[2-(2-Chloro-4-ethylphenylimino)-imidazolidine]", "values": [{"measurement": "sedation, in words (literature)", "setting": "[1]", "value": "very strong sedative or sleep inducer"}]}
{"compound": "Clc1cccc(Cl)c1NC1=NCCN1", "note": "[CLONIDINE HYDROCHLORIDE]", "values": [{"measurement": "pEC50", "setting": "[2]; dog saphenous vein ring, read-out: ED50 Alpha3 Dog Saphenous Vein", "value": 7.80}, {"measurement": "α2/α3 Selectivity", "setting": "[3]", "value": 1}, {"measurement": "pEC50", "setting": "[4]", "value": 6.54}, {"measurement": "pEC50", "setting": "[5]", "value": 7.77}]}
{"compound": "CC(C)(C)c1cc(Cl)c(N=C2NCCN2)c(Cl)c1", "note": "[COMPOUND I, 2-(4-tert.-butyl-2,6-dichlorophenylimino)imidazolidine]", "values": [{"measurement": "ED30", "setting": "normotensive rat; Rattus norvegicus", "value": 9.8, "unit": "µg/kg"}, {"measurement": "pEC50", "setting": "[2]", "value": 7.59}, {"measurement": "relative potency, alpha3", "setting": "[2]", "value": "about equipotent"}, {"measurement": "selectivity for the postsynaptic receptor in vitro (fold)", "setting": "[3]; post- versus presynaptic receptor, in vitro, Table A", "value": 30}, {"measurement": "α2/α3 Selectivity", "setting": "[3]", "value": 30}, {"measurement": "pEC50", "setting": "[4]", "value": 7.52}, {"measurement": "agonist potency relative to clonidine, alpha1", "setting": "[4]; rabbit ear artery, compared with clonidine", "value": "eight times more potent"}, {"measurement": "ED50", "setting": "[6]; ip, read-out: ED50 for potentiation of hexabarbitol induced sedation", "value": 260, "unit": "µg/kg"}, {"measurement": "sedative side effects, in words", "setting": "[6]; summary statement", "value": "devoid of the sedative side effects"}, {"measurement": "pEC50", "setting": "[5]; isolated superfused guinea pig left atrium, read-out: ED50 Alpha2 Guinea Pig Atrium", "value": 6.10}]}
{"compound": "Clc1cccc(Cl)c1N=C1NCCN1", "note": "[clonidine, 2-(2,6-dichlorophenylimino)-2-imidazolidine]", "values": [{"measurement": "hypotensive potency relative to the compound of this invention", "setting": "normotensive rat; clonidine compared with the compound of this invention", "value": "only slightly more potent"}, {"measurement": "ED30", "setting": "normotensive rat; normotensive rat, I.V.", "value": 2.3, "unit": "µg/kg"}, {"measurement": "relative potency, alpha3", "setting": "[2]", "value": "about equipotent"}, {"measurement": "specificity between pre- and post-synaptic receptor subtypes, in words", "setting": "[3]; in vitro, Table A", "value": "very little specificity"}, {"measurement": "α2/α3 Selectivity", "setting": "[3]", "value": 1}, {"measurement": "sedation, in words (literature)", "setting": "[1]", "value": "heavy sedation"}, {"measurement": "marked sedation at a dose lower than the compound of this invention (times lower)", "setting": "[6]; compared with the compound of this invention", "value": "~30"}, {"measurement": "ED50", "setting": "[6]; iv, read-out: ED50 in the hexabarbitol sleep time assay", "value": 9.6, "unit": "µg/kg"}, {"measurement": "activity relative to the compound of this invention, alpha2 (times as active)", "setting": "[5]; guinea pig left atrium", "value": 46}]}
